Structures can show the parent of a compound that is named as a salt.

The subject of data set [1] is promoter region of the TGF-β1 gene. Nature of the data set: Inhibitory effect on expression of TGF-β mRNA (TGF-β1 promoter-luciferase reporter, TNF-α stimulation). Format: cell-based. The note with it: mink lung epithelial cells (Mv1Lu); drug 1 µg/ml, TNF-α 10 ng/ml; 24 hours; luciferase activity; read-out: Rate of inhibition (%). The protocol: The inhibitory effect of the compounds of the present invention on TGF-β production was evaluated by measuring the inhibition of TGF-β mRNA expression according to the method described in J. Biol. Chem., 264, 402-408 (1989). A chimera plasmid was produced in which the promoter region of the TGF-β1 gene was ligated with a luciferase gene. This plasmid was then transfected into mink lung epithelial cells (Mv1Lu) to produce a cell line stably expressing the luciferase gene under the control of the TGF-β1 promoter. The drug (1 µg/ml) and TNF-α (10 ng/ml) were added to Mv1Lu cells, which were then cultured for 24 hours. Then the activity of luciferase in the cells was measured by a chemiluminescence method. The rate of inhibition was calculated from the following formula, the rate of inhibition being defined as 100% when the measured luciferase activity was equal to that in the absence of stimulation with TNF-α: Rate of inhibition = (Le-Lf)/(Le-Ld) × 100 [formula] In this formula, Ld represents the luciferase activity in the absence of TNF-α, Le represents the luciferase activity in the presence of TNF-α, and Lf represents the luciferase activity in the presence of TNF-α and the test drug.

Data set [2] concerns TGF-β. The data set can be described thus: Antagonistic action against TGF-β (type I procollagen α2 promoter-luciferase reporter, TGF-β1 stimulation). The class given is cell-based. The conditions noted are these: mink lung epithelial cells (Mv1Lu); drug 1 µg/ml, TGF-β1 10 ng/ml; 24 hours; luciferase activity; read-out: Rate of inhibition (%). How it is done:
The test was carried out according to the method described in J. Clin. Invest., 86, 1489-1495 (1990) and J. Biol. Chem. 265, 13351-13356 (1990). A chimera plasmid was produced in which the promoter region of type I procollagen α2 gene was ligated with a luciferase gene. This plasmid was then transfected into mink lung epithelial cells (Mv1Lu) to produce a cell line stably expressing the luciferase gene under the control of the […]. The drug (1 µg/ml) and TGF-β1 (10 ng/ml) were added to Mv1Lu cells, which were then cultured for 24 hours. Then, the activity of luciferase in the cells was measured by a chemiluminescence method. The rate of inhibition was calculated from the following formula, the rate of inhibition being defined as 100% when the measured luciferase activity was equal to that in the absence of stimulation with TGF-β1: Rate of inhibition = (Lb-Lc)/(Lb-La) × 100 [formula] In this formula, La represents the luciferase activity in the absence of stimulation with TGF-β1, Lb represents the luciferase activity in the presence of stimulation with TGF-β1, and Lc represents the luciferase activity in the presence of TGF-β1 and the test drug.

The test system of data set [3] is TGF-β1. Nature of the data set: Inhibition of TGF-β production (TGF-β1 released into the medium, ELISA). The conditions noted are these: human mesangial cells immortalized with SV40, cultured 4 days, TGF-β1 released during the last 2 days; for inhibition at 1 µg/mL: Mesangial cell, read-out: Rate of inhibition (%). Format: cell-based. How it is done: The test was carried out according to the method described in Jpn. J. Pharmacol, 60, 91-96 (1992). That is, human mesangial cells immortalized with SV40 were cultured in 24-well plates, and then the medium was changed to a serum-free medium. The test drugs were added at concentrations of 1 µg/ml or 10 µg/ml, and the cells were cultured for 4 days. The amounts of TGF-β1 (a major type of-TGF-β) released into the medium during the last 2 days were quantified by ELISA kits. The rate of inhibition (%) was calculated from the following formula: Rate of inhibition = (Ta-Tb)/Ta × 100 [formula] In this formula, Ta represents the amount of TGF-β1 released into the medium in the absence of the test drug, and Tb represents the amount of TGF-β1 released into the medium in the presence of the test drug.

The nature of data set [4]: Acute toxicity. Format: in vivo. The conditions noted are these: mice; orally, 300 mg/kg suspension; observed for a week after administration. How it is done:
Each of the compounds in Examples 1, 5, 6, 33, 34, 39, and 48 was administered.

For `CC(=O)Nc1ccc(N2CCCN(C(=O)c3c(-c4ccccc4)n(C)c4ccc(C)cc34)CC2)nc1` [Example 180, 1-(1,5-Dimethyl-2-phenylindol-3-ylcarbonyl)-4-(5-acetylamino-2-pyridyl)homopiperazine], the inhibition at 1 µg/mL in data set [1] came to 25.5%; in data set [2], 48.3%.

In the case of `COc1ccc2c(c1)c(C(=O)NC1CC3CCC(C1)N3C)c(-c1ccccc1)n2C.Cl` (stereo not drawn) [Example 61, N-(endo-8-Methyl-8-azabicyclo[3.2.1]octa-3-yl)-5-methoxy-1-methyl-2-phenylindole-3-carboxamide hydrochloride], the “Rate of inhibition (%)” value in data set [3] (concentration 1 µg/ml) is recorded as 69.7%.

On to `Cc1ccc2c(c1)c(C(=O)N1CCCN(c3ccc(NS(C)(=O)=O)cn3)CC1)c(-c1ccccc1)n2C` [Example 174, 1-(1,5-Dimethyl-2-phenylindol-3-ylcarbonyl)-4-(5-methane-sulfonylamino-2-pyridyl)homopiperazine], for which the inhibition at 1 µg/mL worked out at 24.8% in data set [1] and 49.8% in data set [2].

For `Cc1cc2c(C(=O)N3CCN(c4ccncc4)CC3)c(-c3ccccc3)n(C)c2cc1C.Cl` [Example 39, 1-(1,5,6-Trimethyl-2-phenylindol-3-ylcarbonyl)-4-(4-pyridyl)-piperazine hydrochloride], the figures for the inhibition at 1 µg/mL in data set [1] and in data set [2] were 27.4% and 52.4%, respectively. Further, the deaths entry in data set [4] is “No deaths were observed”.

For `Cn1c(-c2ccccc2)c(C(=O)N2CC[N+]([O-])(c3ccccn3)CC2)c2ccccc21` [Example 5, 1-(1-Methyl-2-phenylindol-3-ylcarbonyl)-4-(2-pyridyl)piperazine-4-oxide], the inhibition at 1 µg/mL was determined as 28.2% in data set [1], 27.4% in data set [2] and 20.9% in data set [3] (concentration 1 µg/ml). Also, the deaths entry in data set [4] is given as “No deaths were observed”.

With `Cc1ccc2c(C(=O)N[C@@H]3C[C@H]4CC[C@@H](C3)N4C)c(-c3ccccc3)n(C)c2c1.Cl` [Example 63, N-(endo-8-Methyl-8-azabicyclo[3.2.1]octa-3-yl)-1,6-dimethyl-2-phenylindole-3-carboxamide hydrochloride], the “Rate of inhibition (%)” value in data set [3] (concentration 1 µg/ml) stood at 40.7%.

Regarding `Cc1ccc2c(c1)c(C(=O)N1CCN(c3ccccn3)CC1)c(-c1ccccc1)n2C.Cl` [Example 1, 1-(1,5-Dimethyl-2-phenylindol-3-ylcarbonyl)-4-(2-pyridyl)piperazine hydrochloride], the deaths entry in data set [4] is given as “No deaths were observed”. Further, in data set [2], the inhibition at 1 µg/mL is 31.2%.

For the compound `Cn1c(-c2ccccc2)c(C(=O)N2CCCN(c3cccnc3)CC2)c2ccccc21` [Example 120, 1-(1-Methyl-2-phenylindol-3-ylcarbonyl)-4-(3-pyridyl)homopiperazine hydrochloride], the inhibition at 1 µg/mL in data set [1] turned out to be 27.7%; in data set [2], 44.9%.

As to `Cc1ccc2c(c1)c(C(=O)N1CCN(c3cccnc3)CC1)c(-c1ccccc1)n2C.Cl.Cl` [Example 33, 1-(1,5-Dimethyl-2-phenylindol-3-ylcarbonyl)-4-(3-pyridyl)piperazine dihydrochloride], the results for the inhibition at 1 µg/mL in data set [1] and in data set [2] were 43.2% and 50.6%, respectively. Also, the deaths entry in data set [4] is listed as “No deaths were observed”.

Turning to `Cc1ccc2c(c1)c(C(=O)N1CCN(c3ccc([N+](=O)[O-])cn3)CC1)c(-c1ccccc1)n2C` [Example 58, 1-(1,5-Dimethyl-2-phenylindol-3-ylcarbonyl)-4-(5-nitro-2-pyridyl)-piperazine hydrochloride], the inhibition at 1 µg/mL in data set [1] is 30.2%; in data set [2] it was 34.8%; in data set [3] (concentration 1 µg/ml), 27.6%.

Regarding `Cc1ccc(=O)n(-c2ccccc2)c1` [Perfenidone, reference compound], in data set [3] (concentration 10 µg/ml), the “Rate of inhibition (%)” value amounted to 1.7%.

`Cc1ccc2c(c1)c(C(=O)N1CCCN(c3ccccn3)CC1)c(-c1ccccc1)n2C` [Example 119, 1-(1,5-Dimethyl-2-phenylindol-3-ylcarbonyl)-4-(2-pyridyl)-homopiperazine hydrochloride]: the results for the inhibition at 1 µg/mL in data set [1] and in data set [2] were 39.2% and 53.8%, respectively.

For `Cc1ccc2c(c1)c(C(=O)N1CCCN(c3cccnc3)CC1)c(-c1ccccc1)n2C` [Example 121, 1-(1,5-Dimethyl-2-phenylindol-3-ylcarbonyl)-4-(3-pyridyl)-homopiperazine hydrochloride], the inhibition at 1 µg/mL in data set [1] was 40.6%; in data set [2] it was 59%.

On to `Cl.Cn1c(-c2ccccc2)c(C(=O)N2CCN(c3ccc([N+](=O)[O-])cn3)CC2)c2ccccc21` [Example 48, 1-(1-Methyl-2-phenylindol-3-ylcarbonyl)-4-(5-nitro-2-pyridyl)-piperazine hydrochloride], for which the inhibition at 1 µg/mL in data set [1] turned out to be 74.7%; in data set [2], 63.7%. For the same compound, the deaths entry in data set [4] was “No deaths were observed”.

For the compound `COC(=O)c1ccc(N2CCCN(C(=O)c3c(-c4ccccc4)n(C)c4ccc(C)cc34)CC2)nc1` [Example 178, 1-(1,5-Dimethyl-2-phenylindol-3-ylcarbonyl)-4-(5-carbomethoxy-2-pyridyl)-homopiperazine], the inhibition at 1 µg/mL worked out at 43% in data set [1] and 102% in data set [2].

As to `Cc1ccc2c(c1)c(C(=O)N[C@H]1C[C@H]3CC[C@@H](C1)N3C)c(-c1ccccc1)n2C.Cl` [Example 117, N-(endo-8-Methyl-8-azabicyclo[3.2.1]octa-3-yl)-1,5-dimethyl-2-phenylindole-3-carboxamide hydrochloride], the “Rate of inhibition (%)” value in data set [3] (concentration 1 µg/ml) was 47.4%.

As for `CCN(CC)S(=O)(=O)c1ccc(N2CCCN(C(=O)c3c(-c4ccccc4)n(C)c4ccc(C)cc34)CC2)nc1` [Example 183, 1-(1,5-Dimethyl-2-phenylindol-3-ylcarbonyl)-4-(5-diethylamino-sulfonyl-2-pyridyl)homopiperazine], the inhibition at 1 µg/mL in data set [1] was 46.9%; in data set [2] it was 79.3%.

As to `Cn1c(-c2ccccc2)c(C(=O)N2CCCN(c3ccccn3)CC2)c2ccccc21` [Example 118, 1-(1-Methyl-2-phenylindol-3-ylcarbonyl)-4-(2-pyridyl)-homopiperazine dihydrochloride], the inhibition at 1 µg/mL is 48.8% in data set [1] and 51.8% in data set [2].

Regarding `Cc1ccc2c(c1)c(C(=O)N1CCN(c3ccncc3)CC1)c(-c1ccccc1)n2C.Cl` [Example 34, 1-(1,5-Dimethyl-2-phenylindol-3-ylcarbonyl)-4-(4-pyridyl)piperazine hydrochloride], in data set [4], the deaths result is “No deaths were observed”. The inhibition at 1 µg/mL in data set [2] amounted to 33.8%.

On to `Cl.Cn1c(-c2ccccc2)c(C(=O)N2CCN(c3ccccn3)CC2)c2ccccc21` [Example 6, 1-(1-Methyl-2-phenylindol-3-ylcarbonyl)-4-(2-pyridyl)piperazine hydrochloride], for which the inhibition at 1 µg/mL in data set [1] worked out at 50.1%; in data set [2], 44.6%; in data set [3] (concentration 1 µg/ml), 30.2%. Also, in data set [4], the deaths result is given as “No deaths were observed”.

In the case of `Cc1ccc2c(c1)c(C(=O)N1CCCN(c3ccc([N+](=O)[O-])cn3)CC1)c(-c1ccccc1)n2C` [Example 129, 1-(1,5-Dimethyl-2-phenylindol-3-ylcarbonyl)-4-(5-nitro-2 pyridyl)homopiperazine], in data set [2], the inhibition at 1 µg/mL turned out to be 64.3%.

The values are drawn from patent EP1156045A1, “AMIDE DERIVATIVES AND DRUG COMPOSITIONS” (Nippon Shinyaku Co., Ltd., priority 1999, dated 2000).
